In patent publication US20100303758A1, “Novel Glucocorticoid Receptor Agonists” (priority 2009, published 2010):

Assays:
[1] = Inhibition of TNF-α release from LPS stimulated isolated human PBMC; type: cell-based; conditions: Homo sapiens, PBMC, read-out: IC50 (nM) for inhibition of TNF-α release
Protocol: The anti-inflammatory activity of the compounds against human leukocytes in vitro was also evaluated by determining inhibition of tumour necrosis factor-α (TNF-α) release from lipopolysaccharide (LPS) stimulated isolated human peripheral mononuclear cells (PBMC).
Peripheral venous blood from healthy, non-medicated donors was collected using ethylenediaminetetraacetic acid (EDTA) as the anti-coagulant. For PBMC preparation, samples of blood were diluted 1:1 with sterile phosphate buffered saline and then separated using ACCUSPIN™ System-Histopaque®-1077 tubes (Sigma-Aldrich, St Louis, Mo.), centrifuged at 400 g for 35 minutes. Buffy coat cells were removed into PBS, centrifuged at 200 g for 10 minutes and re-suspended in PBMC assay buffer (Hanks Balanced Salt Solution, 0.28% [w/v] 4-[2-hydroxyethyl]-1-piperazineethanesulfonic acid [HEPES], 0.01% [w/v] low-endotoxin bovine serum albumin [BSA]. A differential white cell count was performed and PBMC's diluted to 1×10^6 lymphocytes per ml in PBMC assay buffer.
Test compounds were dissolved in DMSO and diluted in PBMC assay buffer (final DMSO concentration 1%) to cover an appropriate concentration range, e.g 0.001 nM to 10000 nM. Samples of test compound solution or vehicle (20 μl) were added into 96-well tissue culture treated plates (Corning) and PBMC (160 μl) added to each well. The assay mixtures were incubated at 37° C. for 1 h in a humidified incubator containing an atmosphere of air supplemented with 5% CO2 before adding LPS (20 μl of 100 ng/ml for PBMC). Plates were returned to the incubator for a further 18 hours, and then centrifuged before recovery of samples of supernatant. TNF-α in the samples was determined using an enzyme-linked immunosorbent assay (ELISA) (Invitrogen kit no CHC-1754; Invitrogen Carlsbad, Calif.) and following the manufacturers instructions. Dose response curves were constructed from which IC50 values were calculated.

human GR = molecular target: T1, human GR (Homo sapiens, UniProt P04150); test: GR agonist potency, MMTV-luciferase reporter in SW1353 cells; type: cell-based; conditions: human chondrosarcoma cell-line SW1353 stably transfected with MMTV-luciferase reporter; approx. 18 hours; data as percentage of 1 μM dexamethasone positive control
T1 construct: SW1353 naturally expresses human GR; endogenous in cells; host or cells: human chondrosarcoma cell-line SW1353 stably transfected with an MMTV-luciferase reporter construct
T1 sequence (P04150 1-777): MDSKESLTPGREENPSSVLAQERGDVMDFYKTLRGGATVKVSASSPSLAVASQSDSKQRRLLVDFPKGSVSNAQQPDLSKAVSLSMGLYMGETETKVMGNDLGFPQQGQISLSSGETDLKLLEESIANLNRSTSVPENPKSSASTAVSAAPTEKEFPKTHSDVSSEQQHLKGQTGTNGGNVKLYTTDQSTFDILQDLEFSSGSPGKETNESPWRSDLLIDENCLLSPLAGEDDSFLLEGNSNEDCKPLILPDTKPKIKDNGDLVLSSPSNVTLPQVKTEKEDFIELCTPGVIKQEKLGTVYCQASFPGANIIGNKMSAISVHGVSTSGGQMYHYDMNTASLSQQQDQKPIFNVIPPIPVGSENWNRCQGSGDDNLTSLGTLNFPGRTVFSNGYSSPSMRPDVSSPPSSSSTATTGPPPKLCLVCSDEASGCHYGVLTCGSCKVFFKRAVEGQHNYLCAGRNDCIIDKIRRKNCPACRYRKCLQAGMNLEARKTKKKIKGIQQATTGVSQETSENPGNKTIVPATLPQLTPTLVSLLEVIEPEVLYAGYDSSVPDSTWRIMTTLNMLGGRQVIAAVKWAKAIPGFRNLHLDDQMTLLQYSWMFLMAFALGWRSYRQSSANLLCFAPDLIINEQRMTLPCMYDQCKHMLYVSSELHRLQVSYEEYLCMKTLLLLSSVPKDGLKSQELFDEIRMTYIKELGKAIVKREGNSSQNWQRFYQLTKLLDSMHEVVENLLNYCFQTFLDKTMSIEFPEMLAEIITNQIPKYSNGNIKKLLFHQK
Protocol: Glucococorticoid receptor (GR) agonist potency was determined in the human chondrosarcoma cell-line SW1353 stably transfected with an MMTV-luciferase reporter construct. SW1353 naturally expresses human GR, which on binding a glucocorticoid agonist activates glucocorticoid response elements within the MMTV promoter, driving expression of the luciferase gene.
Frozen SW1353 cells were revived in DMEM medium, without sodium pyruvate or phenol red, supplemented with 2 mM L-glutamine, 1 μg/ml insulin, 2 mg/ml lactalbumin hydrosylate and 0.5 μg/ml ascorbate. Cells were seeded at approximately 5000 cells/well (35 μl/well) in 384-well clear bottom, tissue culture treated plates. Steroid dose-response dilutions were prepared in steroid diluent (PBS containing 2.5% (v/v) DMSO and 0.05% (v/v) pluronic detergent) and 5 μl added to each well. The volume was made up to 50 μl per well with steroid diluent. Positive control wells contained 1 μM dexamethasone. Plates were incubated for approximately 18 hours at 37° C. in an air/5% CO2 atmosphere in a humidified incubator before Britelite reagent (10 μl; Perkin-Elmer) was added to each well. Each plate was incubated for 2 minutes in the dark and luminescence quantified using a LJL Biosystems Analyst luminometer. Data for test compounds (expressed as percentage of the dexamethasone positive control) were used to construct dose response curves from which EC50 values were estimated.

C[C@]12C=CC(=O)C=C1CC[C@H]1[C@@H]3CC[C@](OC(=O)c4ccc(Oc5cccc(O)c5)cc4)(C(=O)OCC#N)[C@@]3(C)C[C@H](O)[C@@]12F [Example 17, cyanomethyl (11beta,17alpha)-9-fluoro-11-hydroxy-17-{[4-(3-hydroxyphenoxy)benzoyl]oxy}-3-oxoandrosta-1,4-diene-17-carboxylate]
IC50 [1]: 0.157 nM | EC50 (human GR): 37.9 nM

C[C@]12C=CC(=O)C=C1CC[C@H]1[C@@H]3CC[C@](OC(=O)c4ccc(Sc5ccccc5)c(O)c4)(C(=O)OCC#N)[C@@]3(C)C[C@H](O)[C@@]12F [Example 19, cyanomethyl (11beta,17alpha)-9-fluoro-11-hydroxy-17-{[3-hydroxy-4-(phenylthio)benzoyl]oxy}-3-oxoandrosta-1,4-diene-17-carboxylate]
IC50 [1]: 0.3 nM | EC50 (human GR): 44.8 nM

C[C@]12C=CC(=O)C=C1CC[C@H]1[C@@H]3CC[C@](OC(=O)c4ccc(Sc5ccc(O)c(Cl)c5)cc4)(C(=O)OCC#N)[C@@]3(C)C[C@H](O)[C@@]12F [Example 20, cyanomethyl (11beta,17alpha)-17-({4-[(3-chloro-4-hydroxyphenyl)thio]-benzoyl}oxy)-9-fluoro-11-hydroxy-3-oxoandrosta-1,4-diene-17-carboxylate]
IC50 [1]: 0.29 nM | EC50 (human GR): 39.2 nM

C[C@]12C=CC(=O)C=C1CC[C@H]1[C@@H]3CC[C@](OC(=O)c4ccc(Oc5ccccc5)cc4O)(C(=O)OCC#N)[C@@]3(C)C[C@H](O)[C@@]12F [Example 21, cyanomethyl(11beta,17alpha)-9-fluoro-11-hydroxy-17-[(2-hydroxy-4-phenoxybenzoyl)oxy]-3-oxoandrosta-1,4-diene-17-carboxylate]
IC50 [1]: 0.656 nM | EC50 (human GR): 49 nM

C[C@]12C=CC(=O)C=C1CC[C@H]1[C@@H]3CC[C@](OC(=O)c4ccc(Cc5ccccc5)cc4)(C(=O)SCF)[C@@]3(C)C[C@H](O)[C@@]12F [Example 22, (11beta,17alpha)-9-fluoro-17-{[(fluoromethyl)thio]carbonyl}-11-hydroxy-3-oxoandrosta-1,4-dien-17-yl 4-benzylbenzoate]
IC50 [1]: 0.087 nM | EC50 (human GR): 69.9 nM

CSc1cccc(Sc2ccc(C(=O)O[C@]3(C(=O)SCF)CC[C@H]4[C@@H]5CCC6=CC(=O)C=C[C@]6(C)[C@@]5(F)[C@@H](O)C[C@@]43C)cc2)c1 [Example 23, (11beta,17alpha)-9-fluoro-17-{[(fluoromethyl)thio]carbonyl}-11-hydroxy-3-oxoandrosta-1,4-dien-17-yl 4-{[3-(methylthio)phenyl]thio}benzoate]
IC50 [1]: 0.536 nM | EC50 (human GR): 52.5 nM

C[C@]12C=CC(=O)C=C1CC[C@H]1[C@@H]3CC[C@](OC(=O)c4ccc(Sc5ccccc5)cc4)(C(=O)SCF)[C@@]3(C)C[C@H](O)[C@@]12F [Example 24, (11beta,17alpha)-9-fluoro-17-{[(fluoromethyl)thio]carbonyl}-11-hydroxy-3-oxoandrosta-1,4-dien-17-yl 4-(phenylthio)benzoate]
IC50 [1]: 0.117 nM | EC50 (human GR): 25.8 nM

C[C@]12C=CC(=O)C=C1CC[C@H]1[C@@H]3CC[C@](OC(=O)c4ccc(Oc5ccccc5)cc4)(C(=O)SCF)[C@@]3(C)C[C@H](O)[C@@]12F [Example 25, (11beta, 17alpha)-9-fluoro-17-{[(fluoromethyl)thio]carbonyl}-11-hydroxy-3-oxoandrosta-1,4-dien-17-yl 4-phenoxybenzoate]
IC50 [1]: 0.026 nM | EC50 (human GR): 19.8 nM

C[C@]12C=CC(=O)C=C1CC[C@H]1[C@@H]3CC[C@](OC(=O)c4ccc(Oc5ccc(O)c(Cl)c5)cc4)(C(=O)SCF)[C@@]3(C)C[C@H](O)[C@@]12F [Example 26, (11beta, 17alpha)-9-fluoro-17-{[(fluoromethyl)thio]carbonyl}-11-hydroxy-3-oxoandrosta-1,4-dien-17-y1 4-(3-chloro-4-hydroxyphenoxy)-benzoate]
IC50 [1]: 0.177 nM | EC50 (human GR): 42.6 nM

C[C@]12C=CC(=O)C=C1CC[C@H]1[C@@H]3CC[C@](OC(=O)c4ccc(Sc5ccc(O)c(Cl)c5)cc4)(C(=O)SCF)[C@@]3(C)C[C@H](O)[C@@]12F [Example 27, (11beta,17alpha)-9-fluoro-17-[((fluoromethyl)thio]carbonyl)-11-hydroxy-3-oxoandrosta-1,4-dien-17-yl 4-[(3-chloro-4-hydroxyphenyl)thio]benzoate]
IC50 [1]: 0.326 nM | EC50 (human GR): 43.3 nM

C[C@]12C=CC(=O)C=C1CC[C@H]1[C@@H]3CC[C@](OC(=O)c4ccc(Sc5ccccc5)cc4)(C(=O)SCC#N)[C@@]3(C)C[C@H](O)[C@@]12F [Example 28, (11beta,17alpha)-17-{[(cyanomethyl)thio]carbonyl}-9-fluoro-11-hydroxy-3-oxoandrosta-1,4-dien-17-yl 4-(phenylthio)benzoate]
IC50 [1]: 0.231 nM | EC50 (human GR): 37.3 nM

C[C@]12C=CC(=O)C=C1CC[C@H]1[C@@H]3CC[C@](OC(=O)c4ccc(Oc5ccccc5)cc4)(C(=O)SCC#N)[C@@]3(C)C[C@H](O)[C@@]12F [Example 29, (11beta,17alpha)-17-{[(cyanomethyl)-thio]carbonyl}-9-fluoro-11-hydroxy-3-oxoandrosta-1,4-dien-17-yl 4-phenoxybenzoate]
IC50 [1]: 0.156 nM | EC50 (human GR): 78.4 nM

C[C@]12C=CC(=O)C=C1CC[C@H]1[C@@H]3CC[C@](OC(=O)c4ccc(Sc5ccccc5)cc4)(C(=O)SCCl)[C@@]3(C)C[C@H](O)[C@@]12F [Example 30, (11beta,17alpha)-17-{[(chloromethyl)thio]carbonyl}-9-fluoro-11-hydroxy-3-oxoandrosta-1,4-dien-17-yl 4-(phenylthio)benzoate]
IC50 [1]: 0.256 nM | EC50 (human GR): 20.6 nM

C[C@]12C=CC(=O)C=C1[C@@H](F)C[C@H]1[C@@H]3CC[C@](OC(=O)c4ccc(OCc5ccccc5)cc4)(C(=O)CO)[C@@]3(C)C[C@H](O)[C@@]12F [Example 31, (6alpha,11beta)-6,9-difluoro-11,21-dihydroxy-3,20-dioxopregna-1,4-dien-17-yl 4-(benzyloxy)benzoate]
IC50 [1]: 0.152 nM | EC50 (human GR): 102 nM

C[C@]12C=CC(=O)C=C1CC[C@H]1[C@@H]3CC[C@](OC(=O)c4ccc(OCc5ccccc5)cc4)(C(=O)CO)[C@@]3(C)C[C@H](O)[C@@]12F [Example 32, (11beta)-9-fluoro-11,21-dihydroxy-3,20-dioxopregna-1,4-dien-17-yl 4-(benzyloxy)benzoate]
IC50 [1]: 0.506 nM | EC50 (human GR): 36 nM
